Patent US10329289B2, “6,7-dihydro-5H-pyrrolo[3,4-B]pyridin-5-one allosteric modulators of the M4 muscarinic acetylcholine receptor” (Merck Sharp & Dohme Corp., priority 2015, dated 2019)

What follows are compounds tested against T1, human M4 muscarinic acetylcholine receptor (Homo sapiens, UniProt P08173) (assay: human FLIPR-based M4 PAM assay (Ca2+ mobilization, CHO-K1 cells with human M4 receptor and Gαqi5)). Details: acetylcholine at 20% of maximum response, read-out: M4 PAM IP.
T1 construct: expressed in transfected cells; host or cells: CHO-K1
T1 sequence (P08173 1-479): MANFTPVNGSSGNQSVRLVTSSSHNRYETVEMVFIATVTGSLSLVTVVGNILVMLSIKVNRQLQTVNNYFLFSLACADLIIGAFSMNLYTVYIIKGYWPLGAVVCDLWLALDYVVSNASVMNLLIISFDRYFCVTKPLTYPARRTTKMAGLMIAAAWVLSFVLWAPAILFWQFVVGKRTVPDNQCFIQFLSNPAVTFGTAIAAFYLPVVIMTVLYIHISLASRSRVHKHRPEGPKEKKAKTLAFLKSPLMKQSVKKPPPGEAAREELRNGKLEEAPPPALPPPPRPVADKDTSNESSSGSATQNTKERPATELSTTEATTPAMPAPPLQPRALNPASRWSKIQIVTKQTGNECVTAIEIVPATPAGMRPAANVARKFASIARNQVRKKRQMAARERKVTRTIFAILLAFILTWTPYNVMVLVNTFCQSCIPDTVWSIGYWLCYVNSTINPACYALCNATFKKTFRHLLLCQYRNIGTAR
Type: cell-based
Outline: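 CHO-K1 cells stably expressing human M4 and chimeric Gαqi5 were dye-loaded ~1 h at 37 °C and read for Ca2+ fluorescence. Compound followed by acetylcholine at an EC20 (sometimes an EC70 third addition); inflection point from a 4-parameter logistic fit.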

Row | EC50 | SMILES
1 | 246 nM | Cc1cc2c(nc1N1CCC(OCC3(C)CCC3)CC1)CNC2=O [Example 184, 3-methyl-2-(4-((1-methylcyclobutyl)meth-oxy)piperidin-1-yl)-6,7-dihydro-5H-pyrrolo[3,4-b]pyridin-5-one]
2 | 77 nM | CCC1(COC2CCN(c3nc4c(cc3C)C(=O)NC4)CC2)CC1 [Example 186, 2-(4-((1-ethylcyclopropyl)meth-oxy)piperidin-1-yl)-3-methyl-6,7-dihydro-5H-pyrrolo[3,4-b]pyridin-5-one]
3 | 223 nM | Cc1cc2c(nc1N1CCC(OCC34CC(C3)C4)CC1)CNC2=O [Example 187, 2-(4-(bicyclo[1.1.1]pentan-1-ylmethoxy)piperidin-1-yl)-3-methyl-6,7-dihydro-5H-pyrrolo[3,4-b]pyridin-5-one]
4 | 295 nM | CCc1cc2c(nc1N1CCC(OCC3(C)CC3(F)F)CC1)CNC2=O (stereo not shown) [Example 187A, 2-(4-((2,2-difluoro-1-methylcyclopropyl)meth-oxy)piperidin-1-yl)-3-ethyl-6,7-dihydro-5H-pyrrolo[3,4-b]pyridin-5-one]
5 | 1220 nM | Cc1cc2c(nc1N1CCC(OCC(C)C(F)(F)F)CC1)CNC2=O (stereo not shown) [Example 188, 3-methyl-2-(4-(3,3,3-trifluoro-2-methylpropoxy)piperidin-1-yl)-6,7-dihydro-5H-pyrrolo[3,4-b]pyridin-5-one]
6 | 265 nM | Cc1cc2c(nc1N1CCC(OCC3(C(F)(F)F)CC3)CC1)CNC2=O [Example 189, 3-methyl-2-(4-((1-(trifluoromethyl)cyclo-propyl)methoxy)piperidin-1-yl)-6,7-dihydro-5H-pyrrolo[3,4-b]pyridin-5-one]
7 | 5610 nM | COC(=O)c1c(C)c(N2CCC(Oc3ccc(OC)nc3)CC2)nc2c1C(=O)NC2 [Example 190, methyl 2-(4-((6-methoxypyridin-3-yl)oxy)piperidin-1-yl)-3-methyl-5-oxo-6,7-dihydro-5H-pyrrolo[3,4-b]pyridine-4-carboxylate]
8 | 820 nM | Cc1cc2c(nc1N1CCC(OCc3cnn(C)c3)CC1)CNC2=O [Example 190A, 3-methyl-2-(4-((1-methyl-1H-pyrazol-4-yl)methoxy)piperidin-1-yl)-6,7-dihydro-5H-pyrrolo[3,4-b]pyridin-5-one]
9 | 492 nM | Cc1cc2c(nc1N1CCC(OCC3CCCCC3)CC1)CNC2=O [Example 191, 2-(4-(cyclohexylmethoxy)piperidin-1-yl)-3-methyl-6,7-dihydro-5H-pyrrolo[3,4-b]pyridin-5-one]
10 | 1220 nM | COC1(COC2CCN(c3nc4c(cc3C)C(=O)NC4)CC2)CC1 [Example 193, 2-(4-((1-methoxycyclopropyl)methoxy)piperidin-1-yl)-3-methyl-6,7-dihydro-5H-pyrrolo[3,4-b]pyridin-5-one]
11 | 532 nM | Cc1cc2c(nc1N1CCC(Oc3cnc4c(c3)CCCO4)CC1)CNC2=O [Example 194, 2-(4-((3,4-dihydro-2H-pyrano[2,3-b]pyridin-6-yl)oxy)piperidin-1-yl)-3-methyl-6,7-dihydro-5H-pyrrolo[3,4-b]pyridin-5-one]
12 | 20 nM | Cc1c(N2CC[C@@H](Oc3ccc4c(c3)COCC4)[C@@H](F)C2)nc2c(c1C)C(=O)NC2 [Example 194A, 2-((3S,4R)-3-fluoro-4-(isochroman-7-yloxy)piperidin-1-yl)-3,4-dimethyl-6,7-dihydro-5H-pyrrolo[3,4-b]pyridin-5-one]
13 | 68 nM | COCc1ccc(OC2CCN(c3nc4c(cc3C)C(=O)NC4)CC2)cc1 [Example 195, 2-(4-(4-(methoxymethyl)phen-oxy)piperidin-1-yl)-3-methyl-6,7-dihydro-5H-pyrrolo[3,4-b]pyridin-5-one]
14 | 22 nM | Cc1cc2c(nc1N1CC[C@@H](Oc3ccc(F)cc3)[C@@H](F)C1)CNC2=O [Example 196, 2-((3S,4R)-3-fluoro-4-(4-fluorophenoxy)piperidin-1-yl)-3-methyl-6,7-dihydro-5H-pyrrolo[3,4-b]pyridin-5-one]
15 | 6070 nM | Cc1cc2c(nc1N1CCC(Oc3cnc4[nH]nc(C)c4c3)CC1)CNC2=O [Example 197, 3-methyl-2-(4-((3-methyl-1H-pyrazolo[3,4-b]pyridin-5-yl)oxy)piperidin-1-yl)-6,7-dihydro-5H-pyrrolo[3,4-b]pyridin-5-one]
16 | 285 nM | Cc1cc2c(nc1N1CCC(Oc3ccc4ncnn4c3)CC1)CNC2=O [Example 197A, 2-(4-([1,2,4]triazolo[1,5-a]pyridin-6-yloxy)piperidin-1-yl)-3-methyl-6,7-dihydro-5H-pyrrolo[3,4-b]pyridin-5-one]
17 | 18 nM | Cc1cc2c(nc1N1CCC(Oc3ccc4c(c3)OCC4)CC1)CNC2=O [Example 198, 2-(4-((2,3-dihydrobenzofuran-6-yl)oxy)piperidin-1-yl)-3-methyl-6,7-dihydro-5H-pyrrolo[3,4-b]pyridin-5-one]

Row | EC50 | SMILES
18 | 110 nM | CCc1cc2c(nc1N1CCC(Oc3ccc4c(c3)OCC4)CC1)CNC2=O [Example 198A, 2-(4-((2,3-dihydrobenzofuran-6-yl)oxy)piperidin-1-yl)-3-ethyl-6,7-dihydro-5H-pyrrolo[3,4-b]pyridin-5-one]
19 | 60 nM | Cc1cc2c(nc1N1CCC(Oc3ccc4c(c3)CO[C@@H]4C)CC1)CNC2=O [Example 199A, (R)-3-methyl-2-(4-((1-methyl-1,3-dihydro-2-benzofuran-5-yl)oxy)piperidin-1-yl)-6,7-dihydro-5H-pyrrolo[3,4-b]pyridin-5-one]
20 | 72 nM | Cc1cc2c(nc1N1CCC(Oc3ccc4c(c3)CO[C@H]4C)CC1)CNC2=O [Example 199B, (S)-3-methyl-2-(4-((1-methyl-1,3-dihydro-2-benzofuran-5-yl)oxy)piperidin-1-yl)-6,7-dihydro-5H-pyrrolo[3,4-b]pyridin-5-one]
21 | 96 nM | CCc1cc2c(nc1N1CCC(Oc3ccc4c(c3)COCC4)CC1)CNC2=O [Example 200, 3-ethyl-2-(4-(isochroman-7-yloxy)piperidin-1-yl)-6,7-dihydro-5H-pyrrolo[3,4-b]pyridin-5-one]
22 | 58 nM | CCc1cc2c(nc1N1CCC(Oc3ccc4c(c3)CCOC4)CC1)CNC2=O [Example 200A, 3-ethyl-2-(4-(isochroman-6-yloxy)piperidin-1-yl)-6,7-dihydro-5H-pyrrolo[3,4-b]pyridin-5-one]
23 | 230 nM | CCc1cc2c(nc1N1CCC(Oc3cccnc3)CC1)CNC2=O [Example 201, 3-ethyl-2-(4-(pyridin-3-yloxy)piperidin-1-yl)-6,7-dihydro-5H-pyrrolo[3,4-b]pyridin-5-one]
24 | 68 nM | Cc1cc2c(nc1N1CCC(Oc3cnc4c(c3)CCO4)CC1)CNC2=O [Example 201A, 2-(4-((2,3-dihydrofuro[2,3-b]pyridin-5-yl)oxy)piperidin-1-yl)-3-methyl-6,7-dihydro-5H-pyrrolo[3,4-b]pyridin-5-one]
25 | 148 nM | CCc1cc2c(nc1N1CCC(Oc3ccccc3)CC1)CNC2=O [Example 202, 3-ethyl-2-(4-phenoxypiperidin-1-yl)-6,7-dihydro-5H-pyrrolo[3,4-b]pyridin-5-one]
26 | 96 nM | Cc1cc2c(nc1N1CCC(Oc3ccc4nn(C)cc4c3)CC1)CNC2=O [Example 202A, 3-methyl-2-(4-((2-methyl-2H-indazol-5-yl)oxy)piperidin-1-yl)-6,7-dihydro-5H-pyrrolo[3,4-b]pyridin-5-one]
27 | 531 nM | COCc1ccc(OC2CCN(c3nc4c(cc3C)C(=O)NC4)CC2)cn1 [Example 203, 2-(4-((6-(methoxymethyl)pyridin-3-yl)oxy)piperidin-1-yl)-3-methyl-6,7-dihydro-5H-pyrrolo[3,4-b]pyridin-5-one]
28 | 1110 nM | COCCOCc1ccc(OC2CCN(c3nc4c(cc3C)C(=O)NC4)CC2)cn1 [Example 204, 2-(4-((6-((2-methoxyethoxy)methyl)pyridin-3-yl)oxy)piperidin-1-yl)-3-methyl-6,7-dihydro-5H-pyrrolo[3,4-b]pyridin-5-one]
29 | 238 nM | COCCOCc1ccc(OC2CCN(c3nc4c(cc3C)C(=O)NC4)CC2)cc1 [Example 205, 2-(4-(4-((2-methoxyethoxy)methyl)phenoxy)piperidin-1-yl)-3-methyl-6,7-dihydro-5H-pyrrolo[3,4-b]pyridin-5-one]
30 | 5630 nM | Cc1cc2c(nc1N1CCC(OCc3ccccn3)CC1)CNC2=O [Example 205A, 3-methyl-2-(4-(pyridin-2-ylmethoxy)piperidin-1-yl)-6,7-dihydro-5H-pyrrolo[3,4-b]pyridin-5-one]
31 | 589 nM | Cc1cc2c(nc1N1CCC(Oc3cnc4[nH]ncc4c3)CC1)CNC2=O [Example 206, 2-(4-((1H-pyrazolo[3,4-b]pyridin-5-yl)oxy)piperidin-1-pyrazolo[3,4-b]yl)-3-methyl-6,7-dihydro-5H-pyrrolo[3,4-b]pyridin-5-one]
32 | 259 nM | Cc1cc2c(nc1N1CCC(Oc3cnn(C)c3)CC1)CNC2=O [Example 206A, 3-methyl-2-(4-((1-methyl-1H-pyrazol-4-yl)oxy)piperidin-1-yl)-6,7-dihydro-5H-pyrrolo[3,4-b]pyridin-5-one]
33 | 30 nM | Cc1cc2c(nc1N1CCC(Oc3ccc4c(c3)CCOC4)CC1)CNC2=O [Example 207, 2-(4-(isochroman-6-yloxy)piperidin-1-yl)-3-methyl-6,7-dihydro-5H-pyrrolo[3,4-b]pyridin-5-one]

Row | SMILES | EC50
34 | Cc1cc2c(nc1N1CCC(OCC(C)C)CC1)CNC2=O [Example 192, 2-(4-isobutoxypiperidin-1-yl)-3-methyl-6,7-dihydro-5H-pyrrolo[3,4-b]pyridin-5-one] | 310 nM
